The test addresses T1, PHD2 (Homo sapiens, UniProt Q9GZT9).
T1 construct: FLAG-tagged full length PHD2 expressed in and purified from baculovirus-infected Sf9 cells; FLAG; made in house; host or cells: baculovirus-infected Sf9 cells
As to the kind of experiment: PHD2 inhibition assay (time resolved fluorescence, HIF-1α peptide hydroxylation / VHL complex detection). In kind it is biochemical. The settings on record: FLAG-tagged full length PHD2; 0.2 μM 2-oxoglutarate, 0.5 μM HIF-1α peptide. Here is the method:
To each well of a 96-well plate was added 1 μL of test compound in DMSO and 20 μl of assay buffer (50 mM Iris pH 7.4/0.01% Tween-20/0.1 mg/ml bovine serum albumin/10 μM ferrous sulfate/1 mM sodium ascorbate/20 μg/ml catalase) containing 0.15 μg/ml FLAG-tagged full length PHD2 expressed in and purified from baculovirus-infected Sf9 cells. After a 30 min preincubation at room temperature, the enzymatic reactions were initiated by the addition of […] of substrates (final concentrations of 0.2 μM 2-oxoglutarate and 0.5 μM HIF-1α peptide biotinyl-DLDLEMLAPYIPMDDDFQL (SEQ ID NO:1)). After 2 hr at room temperature, the reactions were terminated and signals were developed by the addition of a 25 μL quench/detection mix to a final concentration of 1 mM ortho-phenanthroline, 0.1 mM EDTA, 0.5 nM anti-(His)6 LANCE reagent (Perkin-Elmer Life Sciences), 100 nM AF647-labeled streptavidin (Invitrogen), and 2 μg/ml (His)-6-VHL complex (S. Tan(2001) Protein Expr. Purif. 21, 224-234). The ratio of time resolved fluorescence signals at 665 and 620 nm was determined, and percent inhibition was calculated relative to an uninhibited control sample run in parallel.
T1 sequence (Q9GZT9 whole entry, species assumed): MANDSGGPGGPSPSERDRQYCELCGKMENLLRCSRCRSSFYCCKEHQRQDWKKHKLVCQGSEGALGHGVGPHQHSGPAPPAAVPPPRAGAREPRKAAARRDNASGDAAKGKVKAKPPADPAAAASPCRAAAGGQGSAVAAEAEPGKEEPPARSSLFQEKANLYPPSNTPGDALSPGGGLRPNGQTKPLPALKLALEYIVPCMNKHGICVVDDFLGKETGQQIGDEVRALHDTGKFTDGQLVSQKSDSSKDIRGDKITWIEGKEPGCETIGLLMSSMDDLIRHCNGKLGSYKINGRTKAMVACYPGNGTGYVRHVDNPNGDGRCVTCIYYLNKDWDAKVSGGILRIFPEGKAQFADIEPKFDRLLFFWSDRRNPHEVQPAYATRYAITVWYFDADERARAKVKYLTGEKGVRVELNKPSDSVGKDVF
As a reminder, the IC50 is the concentration at which inhibition is half-maximal. Low values mean greater potency, high ones weaker potency. For the compound `Oc1nc(-n2cccn2)ncc1NC(=S)NC(c1ccccc1)c1ccccc1` [Compound 6-1, 1-benzhydryl-3-(4-hydroxy-2-(1H-pyrazol-1-yl)pyrimidin-5-yl)thiourea], the IC50 fell in the range of 0.5 to 20 nM.

`CC(NC(=S)Nc1cnc(-n2cccn2)nc1O)c1ccccc1` (stereo not drawn) [Compound 7-1, 1-(4-hydroxy-2-(1H-pyrazol-1-yl)pyrimidin-5-yl)-3-(1-phenylethyl)thiourea] showed an IC50 of 0.5 to 20 nM.

In the case of `CC(C)(NC(=S)Nc1cnc(-n2cccn2)nc1O)c1ccccc1` [Compound 8-1, 1-(4-hydroxy-2-(1H-pyrazol-1-yl)pyrimidin-5-yl)-3-(2-phenylpropan-2-yl)thiourea], the IC50 fell in the range of 20 to 100 nM.

`O=C(OC(c1ccccc1)c1ccccc1)c1cnc(-n2cccn2)nc1O` [Compound 9-1, benzhydryl 4-hydroxy-2-(1H-pyrazol-1-yl)pyrimidine-5-carboxylate] had an IC50 of 100 to 10000 nM.

Turning to `O=C(Nc1cnc(-c2ccccn2)nc1O)C(c1ccccc1)c1ccccc1` [Compound 10-1, N-(4-hydroxy-2-(pyridin-2-yl)pyrimidin-5-yl)-2,2-diphenylacetamide], the IC50 lay in the range of 20 to 100 nM.

On to `Oc1nc(-n2cccn2)ncc1-c1cnn(-c2ccccc2)c1` [Compound 11-1, 5-(1-phenyl-1H-pyrazol-4-yl)-2-(1H-pyrazol-1-yl)pyrimidin-4-ol], for which the IC50 lay in the range of 100 to 10000 nM.

`Oc1nc(-n2cccn2)ncc1-c1cnn(Cc2ccccc2)c1` [Compound 11-2, 5-(1-benzyl-1H-pyrazol-4-yl)-2-(1H-pyrazol-1-yl)pyrimidin-4-ol] displayed an IC50 of 100 to 10000 nM.

`Oc1nc(-n2cccn2)ncc1-c1ccccc1` [Compound 11-3, 5-phenyl-2-(1H-pyrazol-1-yl)pyrimidin-4-ol] showed an IC50 of 100 to 10000 nM.

Regarding `O=C(Cc1cnc(-n2cccn2)nc1O)Nc1ccc(Cl)cc1` [Compound 12-1, N-(4-chlorophenyl)-2-(4-hydroxy-2-(1H-pyrazol-1-yl)pyrimidin-5-yl)acetamide], the IC50 is 100 to 10000 nM.

As to `O=C(Cc1cnc(-n2cccn2)nc1O)NC1CCCCC1` [Compound 12-2, N-cyclohexyl-2-(4-hydroxy-2-(1H-pyrazol-1-yl)pyrimidin-5-yl)acetamide], the IC50 fell in the range of 100 to 10000 nM.

For `CC(C)NC(=O)Cc1cnc(-n2cccn2)nc1O` [Compound 12-3, 2-(4-hydroxy-2-(1H-pyrazol-1-yl)pyrimidin-5-yl)-N-isopropylacetamide], the IC50 is 100 to 10000 nM.

As for `Cc1ccc(S(=O)(=O)NC(=O)c2cnc(-c3cccnn3)nc2O)cc1` [Compound 13-1, 4-hydroxy-2-(pyridazin-3-yl)-N-tosylpyrimidine-5-carboxamide], the IC50 was in the range of 100 to 10000 nM.
